# Where a SMILES comes first, the peptide text is derived from it. Bridges are numbered along the chain shown (N, C = ends). [ ]: non-standard residue; d: D form. The star is where a group is joined. ξ: configuration not given here. Phe(3-CF3) = N[C@@H](Cc1cccc(C(F)(F)F)c1)C(=O)O; Ala(morpholin-4-yl) = N[C@@H](CN1CCOCC1)C(=O)O; Phe(4-COOH) = N[C@@H](Cc1ccc(C(=O)O)cc1)C(=O)O; Phe(3,4-F2) = N[C@@H](Cc1ccc(F)c(F)c1)C(=O)O; Bip = N[C@@H](Cc1ccc(-c2ccccc2)cc1)C(=O)O; Phe(3-Me) = Cc1cccc(C[C@H](N)C(=O)O)c1; 1Nal = N[C@@H](Cc1cccc2ccccc12)C(=O)O; Val(3-OH) = CC(C)(O)[C@H](N)C(=O)O; aIle = CC[C@@H](C)[C@H](N)C(=O)O; 4Pal = N[C@@H](Cc1ccncc1)C(=O)O; αMeE = C[C@](N)(CCC(=O)O)C(=O)O; Cha = N[C@@H](CC1CCCCC1)C(=O)O; Cit = NC(=O)NCCC[C@H](N)C(=O)O; dCha = N[C@H](CC1CCCCC1)C(=O)O; Thr(3ξ) = CC(O)[C@H](N)C(=O)O; Carboxymethyl = O=C(O)C*; Nle = CCCC[C@H](N)C(=O)O; Orn = NCCC[C@H](N)C(=O)O; Pra = C#CC[C@H](N)C(=O)O; Dab = NCC[C@H](N)C(=O)O; Dap = NC[C@H](N)C(=O)O
# Target: T1, human PD-1 / PD-L1-Ig binding on Jurkat cell line over-expressing human PD-1 (Jurkat-PD-1) (Homo sapiens, UniProt Q15116)
# T1 construct: expressed in transfected cells; host or cells: Jurkat
# T1 sequence (Q15116 25-288): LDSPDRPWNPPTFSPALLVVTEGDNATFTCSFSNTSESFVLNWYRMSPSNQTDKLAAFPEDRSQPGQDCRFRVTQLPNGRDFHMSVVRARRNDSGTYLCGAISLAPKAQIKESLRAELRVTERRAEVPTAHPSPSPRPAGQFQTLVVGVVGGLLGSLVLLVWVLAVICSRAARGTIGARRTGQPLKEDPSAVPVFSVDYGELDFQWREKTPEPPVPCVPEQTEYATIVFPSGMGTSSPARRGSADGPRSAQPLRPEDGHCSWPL
# Test: Jurkat-PD-1 Cell Binding High-Content Screening Assay (CBA)
# Assay type: cell-based
# Conditions: Jurkat-PD-1 cells, PE-labeled PD-L1-Ig 20 nM final; read-out: Jurkat HPD1_PDL1 IC50
# Summary of the method: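 Binding of fluorescent PD-L1-Ig (phycoerythrin linked via the Ig tag, 20 nM final) to PD-1-overexpressing Jurkat cells was imaged after a 2 h, 37° C compound pretreatment and 1 hour ligand incubation.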
row,Structure (SMILES),IC50 [nM]
1,Cc1cccc(C[C@@H]2NC(=O)[C@H](CC(=O)O)NC(=O)[C@H](Cc3ccc(OCC(=O)O)cc3)NC(=O)[C@H](Cc3ccncc3)NC(=O)CSC[C@@H](C(=O)N[C@@H](CCN)C(N)=O)NC(=O)[C@H](CO)NC(=O)[C@H](C(C)(C)O)NC(=O)[C@H](CC3CCCCC3)NC(=O)[C@H](CCN)NC(=O)[C@@H](CC(C)C)NC(=O)C(C3CCNCC3)NC(=O)[C@H](Cc3ccc(OCC(=O)O)cc3)NC(=O)[C@H](Cc3ccc(-c4ccccc4)cc3)NC(=O)[C@H](Cc3ccc(OCC(=O)O)cc3)NC2=O)c1 (stereo partly drawn) [Compound 2083],912
2,CC(C)C[C@@H]1NC(=O)[C@H](CCN)NC(=O)[C@@H](CC(C)C)NC(=O)[C@H](CCN)NC(=O)[C@H](CCCNC(N)=O)NC(=O)[C@H](Cc2ccc(-c3ccccc3)cc2)NC(=O)[C@H](C(C)C)NC(=O)[C@H](Cc2c[nH]c3ccccc23)NC(=O)[C@H](CC(=O)O)NC(=O)[C@H](Cc2ccc(O)cc2)NC(=O)[C@H](CC(N)=O)NC(=O)CSC[C@@H](C(=O)NCC(N)=O)NC(=O)[C@H]([C@@H](C)O)NC(=O)[C@H](C(C)C)NC1=O [Compound 1117] ({CH2CO}-NYDWV[Bip][Cit][Dab][dL][Dab]LVTCG-NH2; thioether N-14),39.3
3,CC(C)C[C@H]1NC(=O)[C@H](CCCN)NC(=O)[C@H](CCCNC(N)=O)NC(=O)[C@H](Cc2ccc(-c3ccccc3)cc2)NC(=O)[C@H](C(C)C)NC(=O)[C@H](Cc2c[nH]c3ccccc23)NC(=O)[C@H](CC(=O)O)NC(=O)[C@](C)(CCC(=O)O)NC(=O)[C@H](CN)NC(=O)CSC[C@@H](C(=O)N[C@@H](C)C(N)=O)NC(=O)[C@H]([C@@H](C)O)NC(=O)[C@H](C(C)C)NC(=O)[C@H](CC2CCCCC2)NC(=O)[C@H](CCN)NC1=O [Compound 2136] ({CH2CO}-[Dap][αMeE]DWV[Bip][Cit][Orn][dL][Dab][Cha]VTCA-NH2; thioether N-14),814
4,CC(C)C[C@H]1NC(=O)[C@H](CCCN)NC(=O)[C@H](Cc2ccc(C(=O)O)cc2)NC(=O)[C@H](Cc2ccc(-c3ccccc3)cc2)NC(=O)[C@H](Cc2cccc3ccccc23)NC(=O)[C@H](Cc2cccc(C(F)(F)F)c2)NC(=O)[C@H](CC(=O)O)NC(=O)[C@H](Cc2ccc(C(=O)O)cc2)NC(=O)[C@H](CN2CCOCC2)NC(=O)CSC[C@@H](C(=O)N[C@@H](CCN)C(N)=O)NC(=O)[C@H](CCC(=O)O)NC(=O)[C@H](C(C)C)NC(=O)[C@H](CC2CCCCC2)NC(=O)[C@H](CCN)NC1=O [Example 2737] ({CH2CO}-[Ala(morpholin-4-yl)][Phe(4-COOH)]D[Phe(3-CF3)][1Nal][Bip][Phe(4-COOH)][Orn][dL][Dab][Cha]VEC[Dab]-NH2; thioether N-14),5.4
5,C#CC[C@H](NC(=O)[C@H](CCN)NC(=O)[C@@H]1CSCC(=O)N[C@@H](CN)C(=O)N[C@@H](Cc2ccc(C(=O)O)cc2)C(=O)N[C@@H](CC(=O)O)C(=O)N[C@@H](Cc2cccc(C)c2)C(=O)N[C@@H](Cc2ccc(C(=O)O)cc2)C(=O)N[C@@H](Cc2ccc(-c3ccccc3)cc2)C(=O)N[C@@H](Cc2ccc(C(=O)O)cc2)C(=O)N[C@@H](CCCN)C(=O)N[C@H](CC(C)C)C(=O)N[C@@H](CCN)C(=O)N[C@@H](CC2CCCCC2)C(=O)N[C@@H](C(C)(C)O)C(=O)N[C@@H](CCCN)C(=O)N1)C(N)=O [Compound 1856] ({CH2CO}-[Dap][Phe(4-COOH)]D[Phe(3-Me)][Phe(4-COOH)][Bip][Phe(4-COOH)][Orn][dL][Dab][Cha][Val(3-OH)][Orn]C[Dab][Pra]-NH2; thioether N-14),6
6,Cc1cccc(C[C@@H]2NC(=O)[C@H](CC(=O)O)NC(=O)[C@H](Cc3ccc(OCC(=O)O)cc3)NC(=O)[C@H](CCN)NC(=O)CSC[C@@H](C(=O)N[C@@H](CCCN)C(N)=O)NC(=O)[C@H](C(C)O)NC(=O)[C@H](C(C)C)NC(=O)[C@H](CC3CCCCC3)NC(=O)[C@H](CCN)NC(=O)[C@@H](CC(C)C)NC(=O)[C@H](CCCN)NC(=O)[C@H](CCCNC(N)=O)NC(=O)[C@H](Cc3ccc(-c4ccccc4)cc3)NC(=O)[C@H](C(C)C)NC2=O)c1 (stereo partly drawn) [Compound 2639] ({CH2CO}-[Dab]Y(Carboxymethyl)D[Phe(3-Me)]V[Bip][Cit][Orn][dL][Dab][Cha]V[Thr(3ξ)]C[Orn]-NH2; thioether N-14),13.6
7,Cc1cccc(C[C@@H]2NC(=O)[C@H](CC(=O)O)NC(=O)[C@H](Cc3ccc(C(=O)O)cc3)NC(=O)[C@H](Cc3ccncc3)NC(=O)CSC[C@@H](C(=O)N[C@@H](C)C(N)=O)NC(=O)[C@H]([C@@H](C)O)NC(=O)[C@H](C(C)C)NC(=O)[C@H](CC(C)C)NC(=O)[C@H](CCN)NC(=O)[C@@H](CC(C)C)NC(=O)[C@H](CCCN)NC(=O)[C@H](C(C)C)NC(=O)[C@H](Cc3ccc(-c4ccccc4)cc3)NC(=O)[C@H](C(C)C)NC2=O)c1 [Compound 1182] ({CH2CO}-[4Pal][Phe(4-COOH)]D[Phe(3-Me)]V[Bip]V[Orn][dL][Dab]LVTCA-NH2; thioether N-14),8.2
8,CCCC[C@@H]1NC(=O)[C@H](CCCNC(=N)N)NC(=O)[C@@H](CC(C)C)NC(=O)[C@H](CCCN)NC(=O)[C@H](CCCNC(N)=O)NC(=O)[C@H](Cc2ccc(-c3ccccc3)cc2)NC(=O)[C@H](C(C)C)NC(=O)[C@H](Cc2c[nH]c3ccccc23)NC(=O)[C@H](CC(=O)O)NC(=O)[C@H](Cc2ccc(O)cc2)NC(=O)[C@H](CC(N)=O)NC(=O)CSC[C@@H](C(=O)N[C@@H](C)C(N)=O)NC(=O)[C@H]([C@@H](C)O)NC(=O)[C@H](C(C)C)NC1=O [Compound 1177] ({CH2CO}-NYDWV[Bip][Cit][Orn][dL]R[Nle]VTCA-NH2; thioether N-14),78.9

# Second part, the molecule after the results:
row,IC50 [nM],Structure (SMILES)
1,11.6,Cc1cccc(C[C@@H]2NC(=O)[C@H](CC(=O)O)NC(=O)[C@H](Cc3ccc(O)cc3)NC(=O)[C@H](CC(N)=O)NC(=O)CSC[C@@H](C(=O)N[C@@H](C)C(N)=O)NC(=O)[C@H]([C@@H](C)O)NC(=O)[C@H](C(C)C)NC(=O)[C@H](CC3CCCCC3)NC(=O)[C@H](CCN)NC(=O)[C@@H](Cc3ccccc3)NC(=O)[C@H](CCCN)NC(=O)[C@H](CCC(=O)O)NC(=O)[C@H](Cc3ccc(-c4ccccc4)cc3)NC(=O)[C@H](C(C)C)NC2=O)c1 [Compound 1431] ({CH2CO}-NYD[Phe(3-Me)]V[Bip]E[Orn][dF][Dab][Cha]VTCA-NH2; thioether N-14)
2,53.1,CC(C)[C@@H]1NC(=O)[C@H](Cc2c[nH]c3ccccc23)NC(=O)[C@H](CC(=O)O)NC(=O)[C@H](Cc2ccc(O)cc2)NC(=O)[C@H](CC(N)=O)NC(=O)CSC[C@@H](C(=O)N[C@@H](C)C(N)=O)NC(=O)[C@H]([C@@H](C)O)NC(=O)[C@H](C(C)C)NC(=O)[C@H](CC2CCCCC2)NC(=O)[C@H](CCN)NC(=O)[C@@H](Cc2ccccc2)NC(=O)[C@H](CCCN)NC(=O)[C@H](CCC(=O)O)NC(=O)[C@H](Cc2ccc(-c3ccccc3)cc2)NC1=O [Compound 1435] ({CH2CO}-NYDWV[Bip]E[Orn][dF][Dab][Cha]VTCA-NH2; thioether N-14)
3,8.3,CCCC[C@H]1NC(=O)[C@H](CCCN)NC(=O)[C@H](CCC(=O)O)NC(=O)[C@H](Cc2ccc(-c3ccccc3)cc2)NC(=O)[C@H](C(C)C)NC(=O)[C@H](Cc2c[nH]c3ccccc23)NC(=O)[C@H](CC(=O)O)NC(=O)[C@H](Cc2ccc(C(=O)O)cc2)NC(=O)[C@H](Cc2ccc(OCC(=O)O)cc2)NC(=O)CSC[C@@H](C(=O)N[C@@H](C)C(N)=O)NC(=O)[C@H]([C@@H](C)O)NC(=O)[C@H](C(C)C)NC(=O)[C@H](CC2CCCCC2)NC(=O)[C@H](CCN)NC1=O [Compound 1455]
4,48.2,"CC(C)C[C@H]1NC(=O)[C@H](CCCN)NC(=O)[C@H](CCCNC(N)=O)NC(=O)[C@H](Cc2ccc(-c3ccccc3)cc2)NC(=O)[C@H](C(C)C)NC(=O)[C@H](Cc2c[nH]c3ccccc23)NC(=O)[C@H](CC(=O)O)NC(=O)[C@H](Cc2ccc(F)c(F)c2)NC(=O)[C@H](CN)NC(=O)CSC[C@@H](C(=O)N[C@@H](C)C(N)=O)NC(=O)[C@H]([C@@H](C)O)NC(=O)[C@H](C(C)C)NC(=O)[C@H](CC2CCCCC2)NC(=O)[C@H](CCN)NC1=O [Compound 2129] ({CH2CO}-[Dap][Phe(3,4-F2)]DWV[Bip][Cit][Orn][dL][Dab][Cha]VTCA-NH2; thioether N-14)"
5,19.5,CC(C)[C@@H]1NC(=O)[C@H](Cc2c[nH]c3ccccc23)NC(=O)[C@H](CC(=O)O)NC(=O)[C@H](Cc2ccc(C(=O)O)cc2)NC(=O)[C@H](Cc2ccncc2)NC(=O)CSC[C@@H](C(=O)N[C@@H](C)C(N)=O)NC(=O)[C@H]([C@@H](C)O)NC(=O)[C@H](C(C)C)NC(=O)[C@H](CC2CCCCC2)NC(=O)[C@H](CCN)NC(=O)[C@@H](Cc2ccc(O)cc2)NC(=O)[C@H](CCCN)NC(=O)[C@H](CCC(=O)O)NC(=O)[C@H](Cc2ccc(-c3ccccc3)cc2)NC1=O [Compound 1445] ({CH2CO}-[4Pal][Phe(4-COOH)]DWV[Bip]E[Orn][dY][Dab][Cha]VTCA-NH2; thioether N-14)
6,34.1,Cc1cccc(C[C@@H]2NC(=O)[C@H](CC(=O)O)NC(=O)[C@H](Cc3ccc(C(=O)O)cc3)NC(=O)[C@H](Cc3ccncc3)NC(=O)CSC[C@@H](C(N)=O)NC(=O)[C@H](CCC(=O)O)NC(=O)[C@H](C(C)C)NC(=O)[C@H](CC3CCCCC3)NC(=O)[C@H](CCN)NC(=O)[C@@H](CC(C)C)NC(=O)[C@H](CCCN)NC(=O)[C@H](CCCNC(N)=O)NC(=O)[C@H](Cc3ccc(-c4ccccc4)cc3)NC(=O)[C@H](C(C)C)NC2=O)c1 [Compound 2269] ({CH2CO}-[4Pal][Phe(4-COOH)]D[Phe(3-Me)]V[Bip][Cit][Orn][dL][Dab][Cha]VEC-NH2; thioether N-14)
7,26.9,CC[C@@H](C)[C@@H]1NC(=O)[C@H](Cc2ccc(-c3ccccc3)cc2)NC(=O)[C@H](C(C)C)NC(=O)[C@H](Cc2c[nH]c3ccccc23)NC(=O)[C@H](CC(=O)O)NC(=O)[C@H](Cc2ccc(C(=O)O)cc2)NC(=O)[C@H](Cc2ccncc2)NC(=O)CSC[C@@H](C(=O)N[C@@H](C)C(N)=O)NC(=O)[C@H]([C@@H](C)O)NC(=O)[C@H](C(C)C)NC(=O)[C@H](CC2CCCCC2)NC(=O)[C@H](CCN)NC(=O)[C@@H](CC2CCCCC2)NC(=O)[C@H](CCCN)NC1=O [Compound 1624] ({CH2CO}-[4Pal][Phe(4-COOH)]DWV[Bip][aIle][Orn][dCha][Dab][Cha]VTCA-NH2; thioether N-14)

# From patent US20250163104A1, “MACROCYCLIC IMMUNOMODULATORS” (priority 2021, published 2025)
